From patent US7989649B2, “Tumor imaging compounds” (Emory University, priority 2002, dated 2011)

Test: Rodent biodistribution study in normal Fischer rats
Assay type: in vivo, rat
Details: for Tissue distribution of radioactivity, Liver / Tissue distribution of radioactivity, Lung / Tissue distribution of radioactivity, Muscle / Tissue distribution of radioactivity, Pancreas / Tissue distribution of radioactivity, Spleen / Tissue distribution of radioactivity, Testis / Tissue distribution of radioactivity, Kidney / Tissue distribution of radioactivity, Blood / Tissue distribution of radioactivity, Bone / Tissue distribution of radioactivity, Brain / Tissue distribution of radioactivity, Heart: normal Fischer rats
Experimental: Rodent biodistribution studies. The same procedures were used to evaluate [^18F]5a and [^18F]5b separately in rodents. The tissue distribution of radioactivity was determined in 16 normal male Fischer 344 rats (200-250 g) after intravenous injection of ˜85 μCi of [^18F]5a or [^18F]5b in 0.3 mL of sterile water. The animals were allowed food and water ad libitum before the experiment. Following anesthesia induced with an intramuscular injection of 0.1 mL/100 g of a 1:1 ketamine ([…]):xylazine (20 mg/mL) solution, the radiolabeled amino acid was injected into the rats via tail vein catheters. Groups of four rats were killed at 5 minutes, 30 minutes, 60 minutes and 120 minutes after injection of the dose. The animals were dissected, and selected tissues were weighed and counted along with dose standards in a Packard Cobra II Auto-Gamma Counter. The raw counts were decay corrected, and the counts were normalized as the percent of total injected dose per gram of tissue (% ID/g). A comparison of the uptake of activity in the tissues at each time point was analyzed using a 1-way ANOVA (GraphPad Prism software package).

[1] = 5 min after injection, listed as [^18F]FAMP (5a)
[2] = 120 min after injection, listed as [^18F]FAMP (5a)

In the case of `CC(N)(CF)C(=O)O` (racemic) [[^18F]5a, 2-amino-3-fluoro-2-methylpropanoic acid], the “Tissue distribution of radioactivity, Liver” value (from here on “Tissue distribution … Liver”) (5 min after injection) is reported as 0.65 percent dose per gram, the “Tissue distribution of radioactivity, Lung” value (“Tissue distribution … Lung” for short) (5 min after injection) is reported as 0.55 ± 0.006 percent dose per gram and the “Tissue distribution of radioactivity, Muscle” value (from here on “Tissue distribution … Muscle”) (5 min after injection) is reported as 0.22 ± 0.013 percent dose per gram. For the same compound, the “Tissue distribution of radioactivity, Pancreas” value (“Tissue distribution … Pancreas” below) (5 min after injection) was 3.46 percent dose per gram, the “Tissue distribution of radioactivity, Spleen” value (shortened to “Tissue distribution … Spleen”) (5 min after injection) was 0.83 ± 0.05 percent dose per gram and the “Tissue distribution of radioactivity, Testis” value (“Tissue distribution … Testis” for short) (5 min after injection) was 0.17 ± 0.010 percent dose per gram. For the same compound, the “Tissue distribution of radioactivity, Kidney” value (“Tissue distribution … Kidney” below) [1] was 6.36 ± 0.36 percent dose per gram, the “Tissue distribution … Liver” value [1] was 0.65 ± 0.05 percent dose per gram and the “Tissue distribution … Pancreas” value [1] was 3.46 ± 0.19 percent dose per gram. For the same compound, the “Tissue distribution of radioactivity, Blood” value (from here on “Tissue distribution … Blood”) (30 min after injection) was 0.25 ± 0.014 percent dose per gram, the “Tissue distribution of radioactivity, Bone” value (“Tissue distribution … Bone” below) (30 min after injection) was 0.22 ± 0.02 percent dose per gram and the “Tissue distribution of radioactivity, Brain” value (from here on “Tissue distribution … Brain”) (30 min after injection) was 0.05 ± 0.004 percent dose per gram. For the same compound, the “Tissue distribution of radioactivity, Heart” value (“Tissue distribution … Heart” below) (30 min after injection) was 0.29 ± 0.04 percent dose per gram, the “Tissue distribution … Kidney” value (30 min after injection) was 5.59 ± 0.28 percent dose per gram and the “Tissue distribution … Liver” value (30 min after injection) was 0.56 ± 0.04 percent dose per gram. For the same compound, the “Tissue distribution … Lung” value (30 min after injection) was 0.54 ± 0.12 percent dose per gram, the “Tissue distribution … Muscle” value (30 min after injection) was 0.22 ± 0.009 percent dose per gram and the “Tissue distribution … Pancreas” value (30 min after injection) was 2.93 ± 0.20 percent dose per gram. The “Tissue distribution … Spleen” value (30 min after injection) was 0.54 ± 0.03 percent dose per gram, the “Tissue distribution … Testis” value (30 min after injection) was 0.10 ± 0.006 percent dose per gram and the “Tissue distribution … Blood” value (60 min after injection) was 0.22 ± 0.02 percent dose per gram. For the same compound, the “Tissue distribution … Bone” value (60 min after injection) was 0.19 ± 0.03 percent dose per gram, the “Tissue distribution … Brain” value (60 min after injection) was 0.06 ± 0.004 percent dose per gram and the “Tissue distribution … Heart” value (60 min after injection) was 0.28 ± 0.013 percent dose per gram. The “Tissue distribution … Kidney” value (60 min after injection) was 4.74 ± 0.15 percent dose per gram, the “Tissue distribution … Liver” value (60 min after injection) was 0.50 ± 0.013 percent dose per gram and the “Tissue distribution … Lung” value (60 min after injection) was 0.44 ± 0.05 percent dose per gram. The “Tissue distribution … Muscle” value (60 min after injection) was 0.26 ± 0.02 percent dose per gram, the “Tissue distribution … Pancreas” value (60 min after injection) was 2.95 ± 0.27 percent dose per gram and the “Tissue distribution … Spleen” value (60 min after injection) was 0.50 ± 0.04 percent dose per gram. The “Tissue distribution … Testis” value (60 min after injection) was 0.12 ± 0.006 percent dose per gram, the “Tissue distribution … Blood” value (120 min after injection) was 0.15 ± 0.005 percent dose per gram and the “Tissue distribution … Bone” value (120 min after injection) was 0.13 ± 0.012 percent dose per gram. For the same compound, the “Tissue distribution … Brain” value (120 min after injection) was 0.05 ± 0.001 percent dose per gram, the “Tissue distribution … Heart” value (120 min after injection) was 0.23 ± 0.03 percent dose per gram and the “Tissue distribution … Kidney” value (120 min after injection) was 2.97 percent dose per gram. The “Tissue distribution … Liver” value (120 min after injection) was 0.48 percent dose per gram, the “Tissue distribution … Lung” value (120 min after injection) was 0.37 ± 0.10 percent dose per gram and the “Tissue distribution … Muscle” value (120 min after injection) was 0.19 ± 0.003 percent dose per gram. For the same compound, the “Tissue distribution … Pancreas” value (120 min after injection) was 2.48 percent dose per gram, the “Tissue distribution … Spleen” value (120 min after injection) was 0.33 ± 0.02 percent dose per gram and the “Tissue distribution … Testis” value (120 min after injection) was 0.10 ± 0.004 percent dose per gram. For the same compound, the “Tissue distribution … Kidney” value [2] was 2.97 ± 0.17 percent dose per gram, the “Tissue distribution … Liver” value [2] was 0.48 ± 0.03 percent dose per gram and the “Tissue distribution … Pancreas” value [2] was 2.48 ± 0.03 percent dose per gram. The “uptake of radioactivity in heart, lung, bone, blood, muscle and testis” value (normal rats, 5 minutes) was less than 0.55 % ID/g and the “brain uptake of radioactivity” value (normal rats, all time points) was “approximately 0.05 % ID/g”.
